# Article PMC10943645 (Current Research in Toxicology, 2024)
# Legend:
# [1] = tested on: DNA; experiment: Identification of B; assay type: in vivo, PIRC rats; conditions: colon and liver tissues
# [2] = Tissue disposition of B; assay type: in vivo, PIRC rats; conditions: for proportion of reactive metabolite among B(a)P metabolite concentrations: colon sample, 50 µg B(a)P/kg bw (Fig. 5D)
# [3] = tested on: SULT1A1; experiment: Western blot of SULT1A1 protein in liver; assay type: in vivo, PIRC rats
# [4] = tested on: GST; experiment: Western blot of GST protein in liver; assay type: in vivo, PIRC rats
# [5] = tested on: SULT1A1; experiment: Western blot of SULT1A1 protein in colon; assay type: in vivo, PIRC rats
# [6] = tested on: GST; experiment: Western blot of GST protein in colon; assay type: in vivo, PIRC rats; conditions: 25 µg B(a)P/kg bw + RD, among all the groups
# [7] = tested on: malondialdehyde (MDA); experiment: Lipid peroxidation; assay type: in vivo, PIRC rats; conditions: B(a)P + WD
# [8] = tested on: malondialdehyde (MDA); experiment: Lipid peroxidation; assay type: in vivo, PIRC rats; conditions: among the treatment groups, except in the case of 100 µg/kg
# [9] = tested on: Caco-2 cells; conditions: Western diet; ref Faria et al. (2020); cited from earlier work
compound,measurement,setting,value
Oc1ccc2ccc3c4ccccc4cc4ccc1c2c43 [3-OH-B(a)P],contribution of B(a)P metabolite to DNA adduct formation,[1],not found to contribute to adduct formation
Oc1ccc2cc3ccc4cccc5ccc(c2c1)c3c45 [9-OH–B(a)P],contribution of B(a)P metabolite to DNA adduct formation,[1],not found to contribute to adduct formation
"c1ccc2c(c1)cc1ccc3cccc4ccc2c1c34 [B(a)P, Benzo(a)pyrene]",B(a)P metabolite concentrations versus dose,"[2]; plasma, liver, colon, 25, 50, 100 µg B(a)P/kg bw",dose-dependent
same,"SULT1A1 protein expression in liver, WD compared to RD",[3]; 25 µg B(a)P/kg bw + WD vs RD,increased expression
same,"SULT1A1 protein expression in liver, RD or WD",[3]; 50 and 100 µg B(a)P/kg bw + RD or WD,no difference
same,"GST protein expression in liver, RD or WD","[4]; 100 µg B(a)P/kg bw, RD or WD",Very little difference
same,"GST protein expression in liver, WD compared to counterparts",[4]; 25 and 50 µg B(a)P/kg bw + WD,significant increase
same,SULT1A1 protein expression in colon,[5]; 25 µg B(a)P/kg bw + RD and WD,negligible
same,SULT1A1 protein expression in colon,"[5]; 50 µg B(a)P/kg bw, both diets",increased
same,"SULT1A1 protein expression in colon, WD compared to RD",[5]; 100 µg B(a)P/kg bw + WD vs RD counterpart,significantly increased
same,GST protein expression in colon,[6],largest increase
same,MDA production in colon,[7],increased
same,oxidative stress (MDA) in serum,[8],no difference
same,bioaccessibility of B(a)P with WD,[9],higher bioaccessibility
"O=C1C=Cc2ccc3c4c(ccc1c24)C(=O)c1ccccc1-3 [B(a)P-3,6-dione]",contribution of B(a)P metabolite to DNA adduct formation,[1],not found to contribute to adduct formation
same,proportion of reactive metabolite among B(a)P metabolite concentrations,[2],high
"O=c1c2ccc3cccc4c(=O)cc(c5ccccc15)-c2c34 [B(a)P-6,12-dione]",contribution of B(a)P metabolite to DNA adduct formation,[1],not found to contribute to adduct formation
same,proportion of reactive metabolite among B(a)P metabolite concentrations,[2],high
"O[C@@H]1[C@@H]2O[C@@H]2c2c(cc3ccc4cccc5ccc2c3c45)[C@H]1O [BPDE, 7β,8α-dihydroxy-9α,10α-epoxy-7,8,9,10-tetrahydrobenzo[a]pyrene]",contribution of B(a)P metabolite to DNA adduct formation,[1],major adducts
